Experiment: RP, Waters ACQUITY UPLC BEH C18, 50 × 2.1 mm, 1.7 µm, 40 °C, 0.6 mL/min, estimated dead time 0.18 min; A: water + 0.1% formic acid, pH 3; B: acetonitrile + 0.1% formic acid, pH 3; gradient (min/%B) 0/5 7/100 8/100
Conditions: stereoisomer not certain

| SMILES | LC retention time [min] |
| --- | --- |
| CN1CCc2cc3c(c4c2C1CC41C=CC(=O)C=C1)OCO3 (configuration not stated) | 1.08 |
| CC(=O)OCC1=C2C(OC(=O)/C=C(/C)COC(C)=O)CC(C)C(=O)CC(=O)C3(C)OC3C2OC1=O (configuration not stated) | 3.5 |
| CC[C@H]1NC2C[C@@]3(C(=O)N(OC)c4cc(OC)ccc43)C3CC1C2CO3 (some centres not stated) | 1.95 |
| CCC1CC2CC3(C(=O)OC)c4[nH]c5ccccc5c4CCN(C2OC)C13 (configuration not stated) | 1.77 |
| CCN1CC2(COC(=O)c3ccccc3NC(=O)CCC(=O)O)CCC(OC)C34C5CC6C(OC)CC(O)(C5C6OC)C(O)(C(OC)C23)C14 (configuration not stated) | 2.22 |
| C/C=C/C(=O)CC1C(=O)C=CC1(CCCCCCCC(=O)O)OC(C)=O (configuration not stated) | 2.74 |
| CCC(O)c1cc(=O)oc2c(C(=O)CC(C)C)c(O)c(CC=C(C)C)c(O)c12 (configuration not stated) | 5.49 |
| COC1C2(O)COC3=CC(=O)C=CC31c1cc(O)c(O)cc1C2 (configuration not stated) | 1.08 |
| COc1ccc2cc1-c1cc(ccc1O)C[C@@H]1NCCc3cc4c(cc31)Oc1c(c(OC)c(O)c3c1[C@H](C2)N(C)CC3)O4 | 1.69 |
| COC(=O)C1=C2CCC3=C2C2(C1)C1(C)CCC4C(C)CN(CC1CC3)C42O (configuration not stated) | 2.17 |
| CC(C)=CCC1CC2(CC=C(C)C)C(O)=C(C(=O)C(C)C)C(=O)OC2=C(C(CC(=O)O)c2ccccc2)C1(C)C (configuration not stated) | 6.13 |
| C/C=C1/C2C=C(C)CC1(N)c1ccc(=O)[nH]c1C2 (configuration not stated) | 0.913 |
| COc1ccc2c3c1OC1C(O)C=CC4C(C2)N(C)CCC341 (configuration not stated) | 0.85 |
| COc1cc2c(cc1OC)-c1c3c(cc4c1C(C2)N(C)CC4)OCO3 (configuration not stated) | 1.84 |
| COc1ccc(-c2oc3cc(OC)c(OC)c(O)c3c(=O)c2OC)cc1O | 2.62 |
| COC1=CC(=O)C2(c3cc(=O)c4c(O)cc(O)cc4o3)C(CC=C(C)C2C[C@@]2(O)C(C)(O)CC[C@H]3C(C)(C)C[C@H](O)C[C@@]32C)C1=O (some centres not stated) | 1.09 |
| COc1c(O)ccc2c1C(OC)N(C)c1c-2ccc2cc3c(cc12)OCO3 (configuration not stated) | 2.48 |
| COC(=O)C1=CC(O)C23OC1CC2(C)CC[C@H](C(C)C)O3 (some centres not stated) | 3.33 |
| CCCCCCCCCCCCCCC[C@@H]1CCC[C@@H](C)N1 [(2R,6R)-2-methyl-6-pentadecylpiperidine] | 5.12 |

| SMILES | LC retention time [min] |
| --- | --- |
| CCC1CN(C)CC2Cc3c([nH]c4ccccc34)C(=O)CC12 (configuration not stated) | 1.71 |
| CC(C)=CCCC(C)=CCC1=Cc2c(O)c3c(c(CC=C(C)C)c2OC1O)OC12C(=CC4CC1C(C)(C)OC2(CC=C(C)C(=O)O)C4=O)C3=O (configuration not stated) | 6.07 |
| Cn1c(N)nc2c(ncn2C)c1=O [2-amino-1,9-dimethyl-6,9-dihydro-1H-purin-6-one] | 0.226 |
| CC1=CC(C2OC3CCCN4C(C5CC(C)C(=O)O5)CCC4C3C2C)OC1=O (configuration not stated) | 1.27 |
| COc1cc2c3cc1Oc1c(cccc1OC)CC1c4c(cc(O)c(OC)c4Oc4cccc(c4)CC3N(C)CC2)CCN1C (configuration not stated) | 1.59 |
| CC(=O)OC/C=C(\C)C(=O)OC1C(=O)C(CO)=CC(OC(C)=O)C1C(C)C (configuration not stated) | 2.84 |
| CC[C@@]12CC(C(=O)OC)=C3Nc4ccccc4[C@@]34CCN(C[C@H]3O[C@H]31)C24 (some centres not stated) | 1.96 |
| COc1cc2c(cc1OC)-c1c(OC)c(OC)cc3c1C(C2)N(C)CC3 (configuration not stated) | 1.87 |
| COc1ccc(C(=O)[C@@H](c2coc3cc(O)ccc3c2=O)C(c2ccc(O)cc2)c2ccc(O)cc2)c(OC)c1 | 3.68 |
| C[C@@H]1O[C@H](O[C@@H]2[C@@H](O)[C@H](OCCc3ccc(O)c(O)c3)O[C@H](CO)[C@H]2OC(=O)/C=C/c2ccc(O)c(O)c2)[C@H](O)[C@H](O)[C@H]1O | 0.258 |
| CC(C)=CCCC(C)C12C=CC(C)(CC1)OO2 (configuration not stated) | 4.96 |
| C/C=C1\CN2CCc3c([nH]c4ccccc34)[C@@H]2C[C@@H]1/C(=C\OC)C(=O)OC | 2.41 |
| COc1ccc2c(c1)CC1c3c(cc4c(c3-2)OCO4)CCN1C (configuration not stated) | 2.15 |
| CC(C)=CC1CC(C2CCC3(C)C4=CCC5C(C)(C)C(=O)CCC5(C)C4CC(C=O)=C23)C(O)O1 (configuration not stated) | 4.03 |
| CC1(C)CCC[C@]2(COC(=O)/C=C/c3ccc(O)c(O)c3)C1CC[C@@]13C[C@@H](CCC12)[C@@](O)(CO)C3 (some centres not stated) | 3.16 |
| CN1CCc2ccc(O)c3c2C1Cc1cc2c(cc1O3)OCO2 (configuration not stated) | 1.4 |
| CC(C)=CCc1c2c(c(O)c3c1OC14C(=CC5CC1C(C)(C)OC4(CC=C(C)C(=O)O)C5=O)C3=O)C=CC(C)(C)O2 (configuration not stated) | 5.38 |
| C/C=C(/C)C(=O)OC1CCC2CC3(O)OC(=O)C(C)=C3CC2(C)C1C (configuration not stated) | 4.16 |

Reference: the RepoRT retention time repository
